Source: publication PMC4992173, “Divergent synthesis and identification of the cellular targets of deoxyelephantopins” (Nature Communications, 2016)

System: four different cancer cell lines (MCF7, Caco-2, HeLa, MDA-MB-231)
Experiment: Cell viability (EC50) in four different cancer cell lines, 3 days, nuclei count
Assay type: cell-based
Conditions: all four tested cell lines
Protocol: We began our biological investigations by assaying the cytotoxicity of natural deoxyelephantopin (DEP) and its unnatural analogues in four different cancer cell lines (Fig. 5a, Supplementary Figs 6–8).
Figure 5 Assessing the cytotoxicity of deoxyelephantopin (DEP) and analogues. (a) Cell viability measurements in four different cancer cell lines. Cells were treated with compounds for 3 days, the nuclei were stained with DAPI and counted (EC50 values±s.d. shown; n=3). **P<0.005 and ***P<0.0005 by two-sided Student's t-test. (b) Detection of caspase activation and apoptosis in MCF7 cells using FITC-VAD-FMK fluorescent probe (top) or Annexin V staining (bottom). The cells were treated with 1 μM staurosporine (positive control) or 20 μM deoxyelephantopin for 8 h. Confocal microscopy images are shown. EC50, effector concentration for half-maximum response. Scale bars, 30μm. […]
Biological materials. […] Protein concentration was determined using the Bradford assay (Bio-Rad).
Cell culture and preparation of lysates. […] Cells were lysed by sonication to form cell lysates and protein concentration was determined using the Bradford […]
’ cells/mL and HeLa: 1 ’ cells/mL) in a 96-well plate and allowed to attach overnight. […] Cells were imaged using a SpectraMax i3 plate reader equipped with a SpectraMax MiniMax imaging cytometer (Molecular Devices). […]
Caspase activity labeling for fluorescence cell imaging. […]

## C#CCC[C@H](OC(=O)C(=C)C)[C@H]1C(=C)C(=O)O[C@@H]1c1ccccc1 [24c]
  cytotoxicity rank among alkyne-tagged analogues 24: highest cytotoxicity
